This is an account of results in patent publication US10266482B2, “Long-term memory inducing agent” (NATIONAL UNIVERSITY CORPORATION TOKYO MEDICAL AND DENTAL …, priority 2017, dated 2019).

In experiment [1] the test system is young crickets. Description: Olfactory associative learning test in young crickets (single-time training, memory a day after). To be noted: for administration concentration sufficient to form long-term memory: 3 μl to the brain 20 minutes after single-time training. The format is in vivo, Gryllus bimaculatus. On the procedure:
Male crickets about one week old (young) or three week old (aged) following molting into adult forms were used. Each of the crickets was placed into a 100 ml beaker three days before the experiment, and deprived of water for 2-3 days to enhance the desire of taking water. As the feed, about 10 pieces of insect feed were placed into the beaker.
A 1-ml syringe was used for smell and reward associative conditioning upon learning/training. The syringe contained water as the reward while a piece of paper (3 mm×3 mm) perfumed with peppermint essence was pierced into the needle to about 1 cm from the tip thereof. In this learning/training, the filter paper on the needle was brought near the antennae of the cricket to allow it to smell for 3 seconds and then a drop of water was put out from the tip of the needle and applied to the mouth of the cricket. When the associative conditioning was conducted for four times, the conditionings were conducted at intervals of 5 minutes.
Smell preference was examined by placing each cricket into a test arena. The arena consisted of a “standby chamber” and a “test chamber”. The floor of the “test chamber” had two holes each with a diameter of 4 cm which were communicated with two smell sources. The smell source was a plastic pot containing filter paper perfumed with essence of a smell (peppermint or vanilla) and covered with a gauze lid. In the preference test, each cricket was placed into the test chamber and allowed to walk freely for 4 minutes to search for the two smell sources. Two minutes after the start of the test, a rotary board having the smell sources was rotated to reverse the positions of the vanilla and the peppermint smells. During the test, the time the cricket spent placing its mouth to the gauze of the smell source was measured as a visiting time to the smell source, and the ratio of the visiting times of the two types of smells (PI value: preference index) was calculated according to the following formula to assess the relative preference to the mint smell. PI value=Tp/(Tp+Tv)×100 • Tp: Searching time for smell associated with the reward (peppermint) • Tv: Searching time for smell not associated with the reward (vanilla)
If the preferences for the two smells are equivalent, PI will be 50. Since crickets inherently prefer vanilla smell over peppermint smell, an average PI value prior to the learning/training is usually 25-35, The preference test was conducted before and after the learning/training to examine whether preference for the smell changes due to the learning/training.
As drugs, melatonin, N(1)-acetyl-N(2)-formyl-5-methoxykynuramine (AFMK), N(1)-acetyl-5-methoxykynuramine (AMK), 6-Hydroxymelatonin (6-HM), L-kynurenine, kynuramine, 8-Bromoguanoine 3′,5′-cyclic monophosphate sodium salt (8 br-cGMP) and cycloheximide (CHX) were used. Melatonin, 6-HM, kynurenine, kynuramine and 8br-cGMP were purchased from SIGMA Aldrich, AFMK was purchased from Cayman Chemical, AMK was purchased from Toronto Research Chemicals and CHX was purchased from Wako Pure Chemical Industries. The drugs other than 8br-cGMP and CHX were first dissolved in ethanol and then diluted with physiological saline for crickets to the respective concentrations. In the administration experiment, 3 μl was administered using a 10-μl syringe to the brain via an aperture opened through a simple eye of the head.
PI values were tested before the training and a day after the training in the same group by a Wilcoxon's-test.

The test system of another experiment is young mice. Description: Object recognition test for young mice (melatonin and melatonin metabolites). The format is in vivo, ICR mice. To be noted: i.p. 60 minutes after one one-minute acquisition trial, test trial 24 hours later. As to the method: Two-month-old male ICR mice (young mice) were used. The rearing room was kept at 22° C. at cycles of 12 hours of light period/12 hours of dark period, and feed and drinking water were given freely. All of the experiments were conducted during the latter 6 hours of the light period.
Melatonin (MEL), N(1)-acetyl-N(2)-formyl-5-methoxykynuramine (AFMK), and N(1)-acetyl-5-methoxykynuramine (AMK) were used as drugs. Melatonin was purchased from SIGMA Aldrich, AFMK was purchased from Cayman Chemical, and AMK was purchased from Toronto Research Chemicals. AFMK and AMK were diluted with physiological saline and intraperitoneally administered at a dosage of 0.01 mg/kg bw, 0.1 mg/kg bw or 1.0 mg/kg bw. MEL was diluted with physiological saline containing 1 vol % ethanol, and intraperitoneally administered at a dosage of 1.0 mg/kg bw or 5.0 mg/kg bw. As controls, physiological saline or physiological saline containing 1 vol % ethanol was intraperitoneally administered.
Test was conducted in the same manner as “5.3 Object recognition test” in Example 5.
Processing was conducted in the same manner as “5.4 Statistical processing” in Example 5.

For the next experiment, the system named is aged crickets. Nature of the experiment: Olfactory associative learning test in aged crickets (age-related memory disorder, training four times). Format: in vivo, Gryllus bimaculatus. Particulars: 5 μM, 3 μl. As to the method: Male crickets about one week old (young) or three week old (aged) following molting into adult forms were used. Each of the crickets was placed into a 100 ml beaker three days before the experiment, and deprived of water for 2-3 days to enhance the desire of taking water. As the feed, about 10 pieces of insect feed were placed into the beaker. A 1-ml syringe was used for smell and reward associative conditioning upon learning/training. The syringe contained water as the reward while a piece of paper (3 mm×3 mm) perfumed with peppermint essence was pierced into the needle to about 1 cm from the tip thereof. In this learning/training, the filter paper on the needle was brought near the antennae of the cricket to allow it to smell for 3 seconds and then a drop of water was put out from the tip of the needle and applied to the mouth of the cricket. When the associative conditioning was conducted for four times, the conditionings were conducted at intervals of 5 minutes. Smell preference was examined by placing each cricket into a test arena. The arena consisted of a “standby chamber” and a “test chamber”. […] The smell source was a plastic pot containing filter paper perfumed with essence of a smell (peppermint or vanilla) and covered with a gauze lid. In the preference test, each cricket was placed into the test chamber and allowed to walk freely for 4 minutes to search for the two smell sources. Two minutes after the start of the test, a rotary board having the smell sources was rotated to reverse the positions of the vanilla and the peppermint smells. During the test, the time the cricket spent placing its mouth to the gauze of the smell source was measured as a visiting time to the smell source, and the ratio of the visiting times of the two types of smells (PI value: preference index) was calculated according to the following formula to assess the relative preference to the mint smell. PI value=Tp/(Tp+Tv)×100 • Tp: Searching time for smell associated with the reward (peppermint) • Tv: Searching time for smell not associated with the reward (vanilla) If the preferences for the two smells are equivalent, PI will be 50. Since crickets inherently prefer vanilla smell over peppermint smell, an average PI value prior to the learning/training is usually 25-35, The preference test was conducted before and after the learning/training to examine whether preference for the smell changes due to the learning/training. […] Melatonin, 6-HM, kynurenine, kynuramine and 8br-cGMP were purchased from SIGMA Aldrich, AFMK was purchased from Cayman Chemical, AMK was purchased from Toronto Research Chemicals and CHX was purchased from Wako Pure Chemical Industries. The drugs other than 8br-cGMP and CHX were first dissolved in ethanol and then diluted with physiological saline for crickets to the respective concentrations. In the administration experiment, 3 μl was administered using a 10-μl syringe to the brain via an aperture opened through a simple eye of the head. PI values were tested before the training and a day after the training in the same group by a Wilcoxon's-test.

In experiment [2] the test system is young crickets. Nature of the experiment: Olfactory associative learning test in young crickets (single-time training, memory a day after). The format is in vivo, Gryllus bimaculatus. Particulars: drinking 10 μl of aqueous solution (5 μM) 5 minutes after single-time training.

Each structure is given as a SMILES string.

`COc1ccc(NC=O)c(C(=O)CCNC(C)=O)c1` [Compound 10, N-[3-(2-formylamino-5-methoxyphenyl)-3-oxopropyl]acetamide]: in the experiment with young crickets [1], the “administration concentration sufficient to form long-term memory” value was found to be 1 µM. In addition, in the experiment on young mice, the “concentration at which the effect of inducing long-term memories was found” value is given as 1.0 mg/kg bw.
In the case of `COc1ccc2[nH]cc(CCNC(C)=O)c2c1` [melatonin, reference compound], the “long-term memory formation a day after the training” value is reported as “not” with young crickets [1] (0.2 μM, 3 μl to the brain, 20 minutes after single-time training); “not” in the experiment on young crickets [1] (1 μM, 3 μl to the brain, 20 minutes after single-time training); “long-term memories were formed” in the experiment with young crickets [1] (5 μM, 3 μl to the brain, 20 minutes after single-time training); “long-term memory was formed” in the experiment on young crickets [1] (5 μM, 3 μl, administered between 20 minutes before and 20 minutes after single-time training); “formed” in the experiment with young crickets [1] (25 μM, 3 μl to the brain, 20 minutes after single-time training). The “PI value for mint a day after the training versus PI value before the training” value is “significantly higher” with young crickets [1] (5 μM to the brain 20 minutes before single-time training) and “no significant difference” in the experiment on young crickets [1] (melatonin 5 μM simultaneously with cycloheximide (10 mM), to the brain 20 minutes before single-time training). Moreover, the “administration concentration sufficient to form long-term memory” value with young crickets [1] came to 5 µM. The “amount in 1 g of the food per kg of body weight” value with young crickets [1] (based on the result from ingesting 5 μM for 10 μl) was at least 11.6 µg. The “concentration at which the effect of inducing long-term memories was found” value in the experiment on young mice came out at 5.0 mg/kg bw. Also, the “improvement in an age-related memory disorder” value in the experiment on aged crickets (20 minutes after training for four times) was “improvement in an age-related memory disorder was observed”. Moreover, in the experiment with aged crickets (20 minutes before training for four times), the “long-term memory formation a day after the training (improvement of age-related memory disorder)” value is recorded as “a long-term memory was formed”. Also, the “long-term memory formation a day after the training by oral administration” value in the experiment on young crickets [2] is on record as “long-term memory was formed”.
